Legend:
[1] = Circulating levels after intraperitoneal injection in GF mice; type: in vivo, mouse; conditions: 500 μg intraperitoneally twice per day for 3 days
Method: (§1) An intraperitoneal glucose tolerance test (using 1 g glucose per kg body weight) was then performed after a 4 h fast. Blood glucose levels were measured from tail blood using HemoCue201+analyzer (HemoCue, Angelholm, Sweden). Liver and plasma samples were collected after a 4 h fast. Mice were under isoflurane anesthesia and killed by cervical dislocation. Fresh liver was taken and snap-frozen in liquid nitrogen and stored at −80° C. until protein extraction.
(§2) The samples were then reconstituted with 5% HCl in n-butanol at 70° C. for 1 h, allowing n-butyl ester to be formed. […] Samples (5 μl) were injected onto a C18 BEH column (2.1×100 mm with 1.7 μm particles; Waters, Milford, Mass.) using a gradient consisting of water with 0.1% formic acid (A-phase) and acetonitrile with 0.1% formic acid (B-phase). Mass spectrometric analysis was performed using an Infinity 1290 quaternary UPLC pump (Agilent, Santa Clara, Calif.) coupled to a QTRAP 5500 (ABSciex, Concord, Canada). […] For the internal standards, the transitions 206/81 and 204/93 were used.

[2] = tested on: insulin signaling components; experiment: Immunoblot of liver lysates from GF mice; type: in vivo, mouse; conditions: 3-day treatment
Method: as §1
(§3) Snap-frozen liver and harvested cells were lysed in buffer containing 50 mM Tris-HCl (pH 7.4), 150 mM NaCl, 1 mM EDTA, 1 mM Na3VO4, 20 mM NaF, 10 mM glycerophosphate, 1 mM PMSF, 10% glycerol, 1% Triton X-100 and protease inhibitor cocktail. For immunoprecipitation, the cell lysates were obtained in 0.3% CHAPS-containing lysis buffer, sonicated and centrifuged at 20,000 g for 15 min at 4° C., and the supernatant was incubated with 20 μl of anti-FLAG beads (Sigma) at 4° C. for 4 h under gentle agitation.

[3] = Plasma levels after intraperitoneal injection in CONVR mice; type: in vivo, mouse; conditions: 100 μg i.p. twice per day for 3 days
Method: as §1, §2

CONVR mice = experiment: Intraperitoneal glucose tolerance test in CONVR mice; type: in vivo, mouse; conditions: 100 μg i.p. twice per day for 3 days
Method: as §1

[4] = tested on: insulin signaling components; experiment: IRS and Akt in liver, muscle and WAT of CONVR mice; type: in vivo, mouse
Method: as §1, §3

[5] = tested on: amino acid-deprived primary hepatocytes; experiment: Amino acid-deprived primary hepatocytes (immunoblot); type: cell-based, mouse; conditions: absence of amino acids; 100 μM for 2 h
Method: Primary hepatocytes were isolated from C57BL/6J mice by digesting liver with perfusion of collagenase type IV as described previously. After perfusion, 16×10^5 cells were plated on collagen-coated 60 mm dishes in Dulbecco's modified Eagle's medium (DMEM)/F12 supplemented with fetal bovine serum (FBS), penicillin/streptomycin and 100 nM dexamethasone. After 4 h, the medium was changed to DMEM/F12 containing penicillin/streptomycin.

HEK293 cells = experiment: Signaling in HEK293 cells (immunoblot); type: cell-based, human
Method: as §3
HEK293 cells (ATCC CRL-1573) were grown and maintained in high-glucose (4.5 g/l glucose) DMEM with 10% (v/v) FBS. […] 24 h after transfection (with plasmids or siRNA as indicated), HEK293 cells cultured in poly-L-lysine-coated 60 mm dishes were rinsed twice with DMEM without FBS and incubated in serum-free DMEM for 18 h. HEK293 cells were then washed once with EBSS and incubated in EBSS for 1 h.

p38γ = biological target: T1, p38γ (Homo sapiens, UniProt P53778); experiment: In vitro kinase assay; type: biochemical
T1 construct: purchased Abcam ab125651
T1 sequence (P53778 1-367): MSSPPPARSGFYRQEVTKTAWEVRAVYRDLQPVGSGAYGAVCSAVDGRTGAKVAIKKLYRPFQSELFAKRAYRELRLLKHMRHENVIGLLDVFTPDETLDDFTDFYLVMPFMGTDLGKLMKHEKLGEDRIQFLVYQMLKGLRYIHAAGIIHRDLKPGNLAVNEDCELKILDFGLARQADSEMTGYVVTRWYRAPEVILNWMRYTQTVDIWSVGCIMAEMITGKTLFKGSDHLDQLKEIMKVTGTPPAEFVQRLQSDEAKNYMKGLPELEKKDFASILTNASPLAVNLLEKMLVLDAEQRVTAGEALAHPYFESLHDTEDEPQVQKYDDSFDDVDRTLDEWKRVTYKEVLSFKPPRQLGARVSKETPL
Method: 400 ng of recombinant p62 (Abcam, ab95320) and 200 ng of recombinant p38γ (Abcam, ab125651) were incubated in a kinase assay buffer [25 mM MOPS (pH 7.2), 12.5 mM beta-glycerol-phosphate, 25 mM MgCl2, 5 mM EGTA, 2 mM EDTA and 1 mM DTT] for 15 min on ice.

mTORC2 = biological target: T2, mTORC2 (Homo sapiens, UniProt P42345); experiment: mTORC2 kinase activity assay; type: biochemical
T2 construct: expressed in transfected cells; host or cells: HEK293
Method: HEK293 cells were transfected with 1 μg of HA Rictor and 0.5 μg of Flag mTOR for mTORC2 activity assay, lysed with 0.3% CHAPS-containing lysis buffer, sonicated and centrifuged at 20,000 g for 15 min at 4° C., and the supernatant was incubated with 2 μg of anti-HA antibody at 4° C. for overnight under gentle agitation. Immunocomplexes were then collected with protein A-Sepharose beads (RepliGen, Needham, Mass.) at 4° C. for 2 h and washed three times with 0.3% CHAPS-containing lysis buffer. […] Kinase reaction was started by adding 100 μM ATP for 15 min at 37° C. and stopped by adding 5× Laemmli buffer.

O=C(O)CCc1cnc[nH]1 [imidazole propionate]
circulating concentrations of imidazole propionate [1]: around 13 nM | effect on urocanate levels [1]: without affecting | Akt phosphorylation, either S473 or T308, in liver [2]: no reduction | S6K1 phosphorylation in the liver [2]: increased | mTORC1 S2481 autophosphorylation in the liver [2]: without affecting | hepatic levels of IRS1 and IRS2 ([2]; 500 μg twice per day): reduced | hepatic levels of the insulin receptor (IR) ([2]; 500 μg twice per day): did not affect | effect on urocanate levels [3]: without affecting | increase of circulating concentrations of imidazole propionate [3]: around 4 fold | glucose tolerance (CONVR mice): impaired glucose tolerance | basal Akt S473 phosphorylation in liver, muscle and WAT ([4]; 3-day injection vs vehicle): higher | IRS levels in liver, muscle or WAT ([4]; 3-day injections): did not reduce | S6K1 phosphorylation [5]: strongly induced | S6K1 phosphorylation (HEK293 cells; HEK293, 100 μM for 1 h): induced | basal activation of Akt (HEK293 cells; HEK293, 8 h pretreatment): increased | responsiveness of Akt S473 to insulin (HEK293 cells; HEK293, 8 h pretreatment): reduced | lowest concentration with p62 phosphorylation activation (HEK293 cells; HEK293, absence of amino acids): 10 nM | p62 phosphorylation (HEK293 cells; HEK293, absence of amino acids, 1 and 2 h): concentration- and time-dependent increase | Akt phosphorylation (HEK293 cells; HEK293, compared with amino acids): induced | time to mTORC1 activation (HEK293 cells; absence of amino acids): ≥ 30 min | IRS1 S636/S639 phosphorylation (HEK293 cells; amino acid-deprived HEK293, 2 h): induced | IRS1 levels (HEK293 cells; amino acid-deprived HEK293, 8 h): dramatically reduced | IRS1 protein levels (HEK293 cells; amino acid-deprived cells, up to 2 h): not reduced | time to S6K1 phosphorylation (HEK293 cells; presence of amino acids): ≤ 30 min | p62 phosphorylation (T269 and S272) by p38γ (p38γ; recombinant p38γ and p62, ATP 50 μM): enhanced | p38γ autophosphorylation (p38γ; together with ATP): induced | in vitro mTORC2 kinase activity towards Akt (mTORC2): not altered

— patent US20190369122A1, “METABOLIC DISORDERS” (priority 2016, published 2019)
